# Laboratory results as given in US20250042885A1, “SOLID STATE FORMS OF LOTILANER AND PROCESS FOR PREPARATION THEREOF” (TEVA PHARMACEUTICALS INTERNATIONAL GMBH, priority 2021, published 2025).
# How the values were obtained:
# Type in all cases: physicochemical
# [1] = Grinding experiments (strong grinding, solvent drop grinding; XRPD)
# Experimental: (§1) X-ray diffraction was performed on X-Ray powder diffractometer Bruker D8 Advance; CuK_radiation (λ=1.5418 Å); Lynx eye detector; laboratory temperature 22-25° C.; PMMA specimen holder ring. Prior to analysis, the samples were gently ground by means of mortar and pestle in order to obtain a fine powder. The ground sample was adjusted into a cavity of the sample holder and the surface of the sample was smoothed by means of a cover glass.
# (§2) • Scan range: 2-40 degrees 2-theta; • Scan mode: continuous; • Step size: 0.05 degrees; • Time per step: 0.5 s; • Sample spin: 30 rpm; • Sample holder: PMMA specimen holder ring with silicon low background holder.
# Samples of Lotilaner forms were subjected to strong grinding, and to solvent drop grinding in water, ethanol or isopropanol. Grinding was carried out on the samples alone, or in the presence of ethanol, water or isopropanol. In these experiments, about 20 mg of the sample is placed in a mortar and ground with a pestle for 2 minutes. The solvent, when used, as added to the crystalline material before grinding, in a volume of 10 microlitres. XRPD analysis performed on each of the samples after the grinding experiment, confirmed no change in the starting material (Table 3): […]
# [2] = Storage stability at different relative humidities (XRPD); details: for at least 7 days; conclusion from Table 1
# Experimental: (§3) Prior to analysis, the samples were gently ground by means of mortar and pestle in order to obtain a fine powder. The ground sample was adjusted into a cavity of the sample holder and the surface of the sample was smoothed by means of a cover glass.
# as §2
# Samples of Lotilaner forms were subjected to conditions of different relative humidities at ambient temperature. XRPD analysis was performed on the samples after 7 days.
# [3] = Storage stability at different temperatures and/or relative humidities (XRPD)
# Experimental: as §3, §2
# Samples of Lotilaner forms were subjected to conditions of different temperatures and/or relative humidities. XRPD analysis was performed on the samples after 1, 3 or 6 months.
# [4] = Stability to compression (XRPD)
# Experimental: as §3, §2
# Samples of Lotilaner forms were subjected to pressures of 2 tons for one minute. XRPD analysis was performed on the samples after 1 minute.
# [5] = Thermal stability (heating, XRPD)
# Experimental: as §1, §2
# Samples of Lotilaner forms were subjected to heating up to 100° C. for 30 minutes. XRPD analysis of the sample confirmed no change in the starting material (Table 4): […]
smiles,measurement,setting,value
"Cc1cc(C2=NO[C@@](c3cc(Cl)c(Cl)c(Cl)c3)(C(F)(F)F)C2)sc1C(=O)NCC(=O)NCC(F)(F)F [Form LT1 Lotilaner, 3-Methyl-N-[2-oxo-2-(2,2,2-trifluoroethylamino)ethyl]-5-[(5S)-5-(3,4,5-trichlorophenyl)-5-(trifluoromethyl)-4H-1,2-oxazol-3-yl]thiophene-2-carboxamide]",XRPD analysis after strong grinding,"[1]; about 20 mg ground in mortar with pestle for 2 minutes, no solvent",No change
same,Resistance to polymorphic changes on grinding,[1]; conclusion from Table 3,resistant to polymorphic changes
same,XRPD analysis after solvent-drop grinding (ethanol),"[1]; ground 2 minutes, 10 microlitres ethanol",No change
same,XRPD analysis after solvent-drop grinding (isopropanol),"[1]; ground 2 minutes, 10 microlitres isopropanol",No change
same,XRPD analysis after solvent-drop grinding (water),"[1]; ground 2 minutes, 10 microlitres water",No change
same,Stability after exposure to high and low relative humidity,[2],stable
same,"XRPD analysis after storage, 2-8° C.",[3]; 6 months (6 m),No change
same,"XRPD analysis after storage, 25° C., 60% RH",[3]; 6 months (6 m),No change
same,"XRPD analysis after storage, 40° C., 75% RH",[3]; 6 months (6 m),No change
same,Storage stability,[3]; conclusion from Table 2,good storage stability
same,"XRPD analysis results, pressure (2 tons)",[4]; 2 tons for one minute,No change
same,Stability under high pressure conditions,[4]; conclusion from Table 5,stable
same,"XRPD analysis after heating 100° C., 30 minutes",[5],No change
"Cc1cc(C2=NO[C@@](c3cc(Cl)c(Cl)c(Cl)c3)(C(F)(F)F)C2)sc1C(=O)NCC(=O)NCC(F)(F)F [Form LT4 Lotilaner, 3-Methyl-N-[2-oxo-2-(2,2,2-trifluoroethylamino)ethyl]-5-[(5S)-5-(3,4,5-trichlorophenyl)-5-(trifluoromethyl)-4H-1,2-oxazol-3-yl]thiophene-2-carboxamide]","XRPD analysis after storage, 2-8° C.",[3]; 3 months (3 m),No change
same,"XRPD analysis after storage, 25° C., 60% RH",[3]; 3 months (3 m),No change
same,"XRPD analysis after storage, 40° C., 75% RH",[3]; 3 months (3 m),No change
"Cc1cc(C2=NO[C@@](c3cc(Cl)c(Cl)c(Cl)c3)(C(F)(F)F)C2)sc1C(=O)NCC(=O)NCC(F)(F)F [Form LT5 Lotilaner, 3-Methyl-N-[2-oxo-2-(2,2,2-trifluoroethylamino)ethyl]-5-[(5S)-5-(3,4,5-trichlorophenyl)-5-(trifluoromethyl)-4H-1,2-oxazol-3-yl]thiophene-2-carboxamide]","XRPD analysis after storage, 2-8° C.",[3]; 1 month (1 m),No change
same,"XRPD analysis after storage, 25° C., 60% RH",[3]; 1 month (1 m),No change
same,"XRPD analysis after storage, 40° C., 75% RH",[3]; 1 month (1 m),No change
